Source: PMC11677243, “Target protein identification in live cells and organisms with a non-diffusive proximity tagging system” (eLife, 2024)

How the values were obtained:
[1] = tested on: HEK293T cells; assay: POST-IT^DC661-H1 target-ID by SILAC (LC-MS/MS, DC660 competition); assay type: cell-based, Homo sapiens; conditions: heavy: 200 nM DC661-H1, light: DC661-H1 (200 nM) and DC660 (2 µM)
Description: A stable HEK293T cells expressing the POST-IT system was generated using the PiggyBac transposon system. Briefly, HEK293T cells on a 60 mm dish were co-transfected with 8 µg of PB-puro-CMV-POST-IT-Tet-SBP^K4R-sPup^K61R-iresGFP and 2 µg of the Super PiggyBac Transposase expression vector (PB200PA-1, System Biosciences, USA). Four days later, cells were treated with 5 µg/ml puromycin for about 2 weeks. Media containing puromycin were changed every 3–4 days.
The stable cell line was cultured in SILAC DMEM (280001200, Silantes, Germany) without arginine, lysine, and glutamine, supplemented with 10% dialyzed FBS (C3820-0100, VivaCell Biosciences, China) and 2 mM glutamine. The SILAC medium included 600 mg/l proline (P120032, aladdin, China) to prevent the conversion of arginine to proline ([Bendall et al., 2008]). […]
The expression of POST-IT was induced by the addition of 100 ng/ml doxycycline. […] Cell debris was removed by centrifugation, and protein concentration was determined by the BCA assay. […]
Excised gels were sliced into small pieces of ~1 mm^3, rinsed three times with Milli-Q water, decolorized with 50% acetonitrile and 100 mM NH4HCO3, and dehydrated with 100% acetonitrile. […] The resulting tryptic peptides were analyzed by LC-MS/MS at the Institute of Hydrobiology (Chinese Academy of Sciences, Wuhan, China). […]

[2] = target: T1, VPS37C-V5 (Homo sapiens, UniProt A5D8V6); assay: POST-IT labeling and streptavidin pulldown of VPS37C-V5 in HEK293T cells; assay type: cell-based; conditions: 200 nM DC661-H1, 24 hr
T1 construct: expressed in transfected cells; host or cells: HEK293T
T1 sequence (A5D8V6 whole entry): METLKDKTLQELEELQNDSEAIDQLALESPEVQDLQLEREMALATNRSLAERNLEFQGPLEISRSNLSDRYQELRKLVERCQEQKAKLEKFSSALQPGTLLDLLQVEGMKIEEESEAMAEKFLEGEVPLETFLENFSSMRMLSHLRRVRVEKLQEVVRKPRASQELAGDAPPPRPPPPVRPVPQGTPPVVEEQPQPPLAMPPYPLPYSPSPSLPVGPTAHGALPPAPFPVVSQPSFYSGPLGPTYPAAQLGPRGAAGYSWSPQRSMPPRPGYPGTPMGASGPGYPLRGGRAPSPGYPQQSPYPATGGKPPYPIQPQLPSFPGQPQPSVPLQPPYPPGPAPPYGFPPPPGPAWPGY

[3] = tested on: LC3-II; assay: Autophagy inhibition by LC3-II western blot in HEK293T cells; assay type: cell-based, Homo sapiens; conditions: 12 hr
Description: (§1) Cells transfected and/or treated with different compounds were harvested at the end of treatment.

[4] = tested on: LC3-II; assay: Autophagy inhibition by LC3-II western blot in A375 cells; assay type: cell-based, Homo sapiens; conditions: 12 hr
Description: as §1

[5] = target: T2, SEPHS2 (Homo sapiens, UniProt Q99611, U60C); assay: MST binding to Cy5-labeled SEPHS2; conditions: Cy5-labeled recombinant SEPHS2; n = 2, mean ± s.d.
T2 construct: SBPII (N); 6xHis (pET28a backbone, Ni column purification); made in house; host or cells: E. coli BL21(DE3)
T2 sequence (Q99611 with tags, fused parts or gaps U60C): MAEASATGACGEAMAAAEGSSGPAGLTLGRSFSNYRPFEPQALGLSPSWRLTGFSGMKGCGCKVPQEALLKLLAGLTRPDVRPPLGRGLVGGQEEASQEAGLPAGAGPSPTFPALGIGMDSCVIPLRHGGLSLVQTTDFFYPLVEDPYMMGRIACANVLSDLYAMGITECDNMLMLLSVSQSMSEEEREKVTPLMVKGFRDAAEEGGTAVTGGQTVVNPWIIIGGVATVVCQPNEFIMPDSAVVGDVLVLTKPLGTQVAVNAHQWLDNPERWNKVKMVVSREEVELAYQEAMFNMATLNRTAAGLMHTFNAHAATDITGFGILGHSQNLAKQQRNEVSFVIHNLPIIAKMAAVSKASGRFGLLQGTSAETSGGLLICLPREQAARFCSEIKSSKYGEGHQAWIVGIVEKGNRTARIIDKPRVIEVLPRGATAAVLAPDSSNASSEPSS

[6] = target: T3, SRC (Danio rerio, UniProt Q1JPZ3); assay: In vivo pupylation assay using zebrafish embryos; conditions: 10 µM DH5, 24 hr, versus DMSO
T3 construct: from tissue; host or cells: whole zebrafish embryos (AB strain) injected with the POST-IT plasmid
T3 sequence (Q1JPZ3 whole entry): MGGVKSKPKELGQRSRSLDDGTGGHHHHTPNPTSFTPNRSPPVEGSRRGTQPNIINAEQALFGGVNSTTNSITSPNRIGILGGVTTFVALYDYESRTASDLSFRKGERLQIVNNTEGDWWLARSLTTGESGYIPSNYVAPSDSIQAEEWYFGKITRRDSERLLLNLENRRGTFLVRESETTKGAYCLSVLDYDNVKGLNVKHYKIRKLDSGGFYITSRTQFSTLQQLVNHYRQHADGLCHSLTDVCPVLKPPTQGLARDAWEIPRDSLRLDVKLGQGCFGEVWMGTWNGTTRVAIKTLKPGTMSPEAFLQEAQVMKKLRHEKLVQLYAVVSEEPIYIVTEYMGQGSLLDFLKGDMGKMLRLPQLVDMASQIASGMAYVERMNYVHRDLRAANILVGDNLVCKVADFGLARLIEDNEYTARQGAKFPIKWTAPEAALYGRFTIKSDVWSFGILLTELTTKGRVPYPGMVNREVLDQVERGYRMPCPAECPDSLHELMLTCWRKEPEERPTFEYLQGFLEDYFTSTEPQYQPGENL
Description: To express POST-IT in early zebrafish embryos, 20 pg of pUbi-QFGal4-2A-3×Flag-POST-IT plasmid and 25 pg of transposase mRNA were injected into an embryo at the one-cell stage. The next day, GFP-positive and live embryos were selected, dechorionated with Pronase E (HY-114158, MedChemExpress, USA), and divided into two groups of approximately 1000 embryos each. One group was treated with DMSO and the other with 10 µM DH5 for 24 hr. The embryos were then collected, rinsed with PBS, and lysed in cell lysis buffer using a motorized plastic pestle. The resulting lysates were cleared by centrifugation, and protein concentrations were measured using the BCA assay. Samples were diluted to 2 mg/ml in 1 ml, mixed with 200 µl of prewashed streptavidin magnetic beads, and incubated at 4°C for 3 hr. The beads were washed five times with wash buffer A. Proteins were eluted with 2×SDS sample buffer and subsequently processed for western blot analysis.

[7] = target: T4, SRC (Homo sapiens, UniProt P12931); assay: In cellulo pupylation and pulldown assay of SRC in HEK293T cells; assay type: cell-based; conditions: 250 nM DH5
T4 construct: endogenous in cells; host or cells: HEK293T
T4 sequence (P12931 2-536): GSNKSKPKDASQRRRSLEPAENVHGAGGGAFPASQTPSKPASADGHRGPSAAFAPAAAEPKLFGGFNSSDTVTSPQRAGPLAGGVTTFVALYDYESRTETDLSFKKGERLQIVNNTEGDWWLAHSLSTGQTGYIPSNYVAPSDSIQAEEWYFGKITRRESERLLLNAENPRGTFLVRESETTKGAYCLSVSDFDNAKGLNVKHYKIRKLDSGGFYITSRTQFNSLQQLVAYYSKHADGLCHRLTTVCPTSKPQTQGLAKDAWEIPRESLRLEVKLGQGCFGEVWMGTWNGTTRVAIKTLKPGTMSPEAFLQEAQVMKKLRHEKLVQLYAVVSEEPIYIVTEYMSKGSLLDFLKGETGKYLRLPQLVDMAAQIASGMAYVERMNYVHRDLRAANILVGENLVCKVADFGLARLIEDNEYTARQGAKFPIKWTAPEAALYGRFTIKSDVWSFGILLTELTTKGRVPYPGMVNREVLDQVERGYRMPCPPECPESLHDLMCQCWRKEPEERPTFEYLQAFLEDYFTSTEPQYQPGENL

[8] = tested on: HEK293T cells; assay: POST-IT^DH5 target-ID proteomics (LC-MS/MS, dasatinib competition); assay type: cell-based, Homo sapiens; conditions: for FC(DH5/DASA) / log2(FC(DH5/DASA)): DH5 vs DH5 + dasatinib competition, imputed data
Description: HEK293T cells were plated on two 100 mm dishes for each condition and co-transfected next day with 8 µg of pTol2-HA-Halo^8KR-PafA^S126A,K172R and 16 µg of pEF6a-SBP^K4R-sPup^K61R per dish. […] Cells were harvested in 1 ml of RIPA buffer, supplemented with a protease inhibitor cocktail for each dish. Following brief sonication, cell debris was removed by centrifugation at maximum speed for 10 min at 4°C. The supernatants were collected and mixed with 200 µl of streptavidin magnetic beads that had been prewashed with RIPA buffer. […] The eluates were combined and precipitated using trichloroacetic acid (TCA)/DOC. The resultant protein pellets were neutralized with 1 M Tris-HCl pH 8.8, and separated by Tricine-SDS-PAGE, and the CBB-stained bands were excised, with those smaller than 10 kD being removed, and processed for mass analysis.
Excised gels were sliced into small pieces of ~1 mm^3, rinsed three times with Milli-Q water, decolorized with 50% acetonitrile and 100 mM NH4HCO3, and dehydrated with 100% acetonitrile. The dehydrated gel pieces were then reduced with 10 mM DTT in 50 mM NH4HCO3 at 56°C for 1 hr, carboxymethylated with 55 mM iodoacetamide in the dark at room temperature for 30 min, and digested with trypsin at a 1:50 enzyme to protein mass ratio at 37°C overnight. The peptides were collected, desalted with ZipTipC18 (ZTC18S096, Millipore, USA), dried under vacuum, and stored at –20°C until MS analysis. The resulting tryptic peptides were analyzed by LC-MS/MS at the Institute of Hydrobiology (Chinese Academy of Sciences, Wuhan, China). LC-MS/MS data acquisition was performed using a Q Exactive HF-X mass spectrometer coupled with an Easy-nLC 1200 system (Thermo Fisher Scientific, USA). The peptide mixtures were initially loaded onto a C18 trap column and subsequently separated on a C18 reverse-phase analytical HPLC column, Acclaim PepMap C18 column (75 µm ID ×250 mm, 2 µm particle size, 100 Å pore size, Thermo Fisher Scientific), employing a 100 min gradient program with mobile phase A (0.1% formic acid) and mobile phase B (80% acetonitrile, 0.1% formic acid). The gradient program was as follows: 0–65 min, 5–23% B; 65–85 min, 23–45% B; 85–86 min, 45–90% B; 87–90 min, 90% B; 90–90.1 min, 90–5% B; 90.1–100 min, 5% B, maintained at a constant flow rate of 300 nl/min. For data-dependent acquisition mode analysis, each scan cycle consisted of one full-scan mass spectrum (R = 60 K, AGC = 3e6, max IT = 20 ms, scan range = 350–1800 m/z) followed by 20 MS/MS events (R = 15 K, AGC = 2e5, max IT = 50 ms). The higher-energy collisional dissociation collision energy was set to 28 for ion fragmentation. The isolation window for precursor selection was set to 1.6 Da. The former target ion exclusion was set for 25 s.
For the identification of DH5 targets, raw MS data were analyzed using MaxQuant (version 2.1.0.0, Max Planck Institute of Biochemistry; [Cox and Mann, 2008]) with the Andromeda search engine. The MS data were aligned to the UniProt human protein database (Proteome ID: UP000005640). […] Variable modifications included oxidation (M), acetyl (Protein N-term), deamidation (NQ), and GGE (K). The false discovery rate for both peptide and protein identification was set at 1%. The ‘Match Between run’ option were enabled, with other settings at their default values. Missing values from identified proteins were filled through random imputation and further analyzed statistically to derive p values through unpaired SAM analysis using PANDA-view ([Chang et al., 2018]). Proteins commonly present under DMSO condition were considered nonspecific background interactions and excluded from further analysis.

[9] = target: SRC(251-536) (Homo sapiens, UniProt P12931); assay: SRC kinase activity assay (Kinase-Lumi luminescent)
Chain of SRC(251-536) (P12931 251-536): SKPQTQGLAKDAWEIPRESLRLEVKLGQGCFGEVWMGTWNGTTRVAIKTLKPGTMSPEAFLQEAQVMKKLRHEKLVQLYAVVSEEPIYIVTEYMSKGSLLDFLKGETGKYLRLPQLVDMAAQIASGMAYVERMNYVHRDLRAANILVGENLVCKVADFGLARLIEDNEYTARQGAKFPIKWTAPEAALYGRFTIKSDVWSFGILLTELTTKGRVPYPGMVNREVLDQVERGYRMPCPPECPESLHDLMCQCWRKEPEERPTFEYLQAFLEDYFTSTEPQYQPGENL

| SMILES | target proteins identified by POST-IT^DC661-H1 (SILAC) [1] | enrichment of VPS37C-V5 after streptavidin pulldown [2] | levels of LC3-II band (autophagy inhibition) [3] | levels of LC3-II band (autophagy inhibition) [4] | Kd [5] | enrichment of endogenous SRC by POST-IT in live embryos [6] | POST-IT pulldown of endogenous SRC [7] | target proteins identified by POST-IT^DH5 ([8]; HEK293T, 250 nM DH5 with or without 2.5 µM dasatinib, 24 hr) | FC(DH5/DASA) ([8]; protein AAGAB) | log2(FC(DH5/DASA)) ([8]; protein AAGAB) | FC(DH5/DASA) ([8]; protein AAK1) | log2(FC(DH5/DASA)) ([8]; protein AAK1) | FC(DH5/DASA) ([8]; protein AAMDC) | log2(FC(DH5/DASA)) ([8]; protein AAMDC) | FC(DH5/DASA) ([8]; protein AAR2) | log2(FC(DH5/DASA)) ([8]; protein AAR2) | FC(DH5/DASA) ([8]; protein AARS) | log2(FC(DH5/DASA)) ([8]; protein AARS) | IC50 [9] |
| --- | --- | --- | --- | --- | --- | --- | --- | --- | --- | --- | --- | --- | --- | --- | --- | --- | --- | --- | --- |
| O=C(CN(CCCCCCNc1ccnc2cc(Cl)ccc12)CCCCCCNc1ccnc2cc(Cl)ccc12)NCCCCCNC(=O)OCCOCCOCCOC(=O)NCCOCCOCCCCCCCl [DC661-H1] | identified several target proteins directly linked to autophagy regulation | substantially enriched | significantly increased | significantly increased | – | – | – | – | – | – | – | – | – | – | – | – | – | – | – |
| Cc1nc(Nc2ncc(C(=O)Nc3c(C)cccc3Cl)s2)cc(N2CCN(CCOC(=O)NCCCCCNC(=O)OCCOCCOCCOC(=O)NCCOCCOCCCCCCCl)CC2)n1 [DH5, 23-Chloro-10-oxo-3,6,9,14,17-pentaoxa-11-azatricosyl(2-(4-(6-((5-((2-chloro-6-methylphenyl)carbamoyl)thiazol-2-yl)amino)-2-methylpyrimidin-4-yl)piperazin-1-yl)ethyl) pentane-1,5-diyldicarbamate] | – | – | – | – | 11.6 ± 5.7 µM | marked enrichment | efficiently pull down endogenous SRC | eight known target proteins (FYN, RIPK2, MAPK14, ABL2, ABL1, CSK, LYN, and SRC) with significant enrichment | 1.3259 | 0.4070 | 2.0012 | 1.0009 | 1.9368 | 0.9537 | 1.5565 | 0.6383 | 1.1988 | 0.2616 | 452 nM |
